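Tested at 5 concentrations; 48 h exposure; 96-well plates; endpoints linearly interpolated, else capped at highest concentration. GI50: concentration for 50% inhibition of growth. At the TGI there is no net growth.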
Experiments:
Assay in all cases: NCI anticancer screen, dose series, 48 h
786-0 renal = test system: 786-0 renal
A498 renal = test system: A498 renal
A549 NSCLC = test system: A549 NSCLC
ACHN renal = test system: ACHN renal
BT-549 breast = test system: BT-549 breast
CAKI-1 renal = test system: CAKI-1 renal
CCRF-CEM leukemia = test system: CCRF-CEM leukemia
COLO 205 colon = test system: COLO 205 colon
DU-145 prostate = test system: DU-145 prostate
EKVX NSCLC = test system: EKVX NSCLC
HCC-2998 colon = test system: HCC-2998 colon
HCT-116 colon = test system: HCT-116 colon
HCT-15 colon = test system: HCT-15 colon
HL-60(TB) leukemia = test system: HL-60(TB) leukemia
HOP-62 NSCLC = test system: HOP-62 NSCLC
HOP-92 NSCLC = test system: HOP-92 NSCLC
HS 578T breast = test system: HS 578T breast
HT29 colon = test system: HT29 colon
IGROV1 ovarian = test system: IGROV1 ovarian
K-562 leukemia = test system: K-562 leukemia
KM12 colon = test system: KM12 colon
LOX IMVI melanoma = test system: LOX IMVI melanoma
M14 melanoma = test system: M14 melanoma
MALME-3M melanoma = test system: MALME-3M melanoma
MCF7 breast = test system: MCF7 breast
MDA-MB-231 breast = test system: MDA-MB-231 breast
MDA-MB-435 = test system: MDA-MB-435
MOLT-4 leukemia = test system: MOLT-4 leukemia
NCI-H226 lung = test system: NCI-H226 lung
NCI-H23 lung = test system: NCI-H23 lung
NCI-H460 lung = test system: NCI-H460 lung
NCI-H522 lung = test system: NCI-H522 lung
NCI/ADR-RES ovarian = test system: NCI/ADR-RES ovarian
OVCAR-3 ovarian = test system: OVCAR-3 ovarian
OVCAR-4 ovarian = test system: OVCAR-4 ovarian
OVCAR-5 ovarian = test system: OVCAR-5 ovarian
OVCAR-8 ovarian = test system: OVCAR-8 ovarian
PC-3 prostate = test system: PC-3 prostate
RPMI-8226 leukemia = test system: RPMI-8226 leukemia
RXF 393 renal = test system: RXF 393 renal
SF-268 CNS = test system: SF-268 CNS
SF-295 CNS = test system: SF-295 CNS
SF-539 CNS = test system: SF-539 CNS
SK-MEL-2 melanoma = test system: SK-MEL-2 melanoma
SK-MEL-28 melanoma = test system: SK-MEL-28 melanoma
SK-MEL-5 melanoma = test system: SK-MEL-5 melanoma
SK-OV-3 ovarian = test system: SK-OV-3 ovarian
SN12C renal = test system: SN12C renal
SNB-19 CNS = test system: SNB-19 CNS
SR leukemia = test system: SR leukemia
SW-620 colon = test system: SW-620 colon
T-47D breast = test system: T-47D breast
TK-10 renal = test system: TK-10 renal
U251 CNS = test system: U251 CNS
UACC-257 melanoma = test system: UACC-257 melanoma
UACC-62 melanoma = test system: UACC-62 melanoma
UO-31 renal = test system: UO-31 renal

## COc1ccc2c(c1)C(=Nc1ccc(F)c(F)c1F)c1c-2c(Nc2ccc(F)c(F)c2F)nc2ccccc12
786-0 renal
  GI50: 27.3 µM
  TGI: > 68.7 µM
A498 renal
  GI50: 17.2 µM
  TGI: 53.7 µM
A549 NSCLC
  GI50: > 59.3 µM
  TGI: > 100 µM
ACHN renal
  GI50: 41.2 µM
  TGI: > 100 µM
BT-549 breast
  GI50: 36 µM
  TGI: > 65.4 µM
CAKI-1 renal
  GI50: > 57.2 µM
  TGI: > 100 µM
CCRF-CEM leukemia
  GI50: 46.3 µM
  TGI: > 100 µM
COLO 205 colon
  GI50: 38.8 µM
  TGI: > 100 µM
DU-145 prostate
  GI50: 49.8 µM
  TGI: > 100 µM
EKVX NSCLC
  GI50: > 79.5 µM
  TGI: > 100 µM
HCC-2998 colon
  GI50: > 100 µM
  TGI: > 100 µM
HCT-116 colon
  GI50: 31.8 µM
  TGI: > 100 µM
HCT-15 colon
  GI50: 49 µM
  TGI: > 100 µM
HL-60(TB) leukemia
  TGI: 0.0392 µM
HOP-62 NSCLC
  GI50: 14.6 µM
  TGI: 43.7 µM
HOP-92 NSCLC
  GI50: 48 µM
  TGI: > 100 µM
HS 578T breast
  GI50: 22 µM
  TGI: > 100 µM
HT29 colon
  GI50: 36.6 µM
  TGI: > 100 µM
IGROV1 ovarian
  GI50: 15.9 µM
  TGI: > 72.9 µM
K-562 leukemia
  GI50: 29.5 µM
  TGI: > 100 µM
KM12 colon
  GI50: > 71.1 µM
  TGI: > 100 µM
LOX IMVI melanoma
  GI50: > 60.5 µM
  TGI: > 100 µM
M14 melanoma
  GI50: 27.7 µM
  TGI: > 100 µM
MALME-3M melanoma
  GI50: 50.6 µM
  TGI: > 100 µM
MCF7 breast
  GI50: 44 µM
  TGI: > 100 µM
MDA-MB-231 breast
  GI50: 26.6 µM
  TGI: > 60.1 µM
MDA-MB-435
  GI50: > 70.7 µM
  TGI: > 100 µM
MOLT-4 leukemia
  GI50: 24.2 µM
  TGI: > 100 µM
NCI-H226 lung
  GI50: > 44.4 µM
  TGI: > 84.1 µM
NCI-H23 lung
  GI50: > 36.1 µM
  TGI: > 62.2 µM
NCI-H460 lung
  GI50: > 75.5 µM
  TGI: > 100 µM
NCI-H522 lung
  GI50: 59.8 µM
  TGI: > 100 µM
NCI/ADR-RES ovarian
  GI50: 37.4 µM
  TGI: > 82.8 µM
OVCAR-3 ovarian
  GI50: 46.6 µM
  TGI: > 89.1 µM
OVCAR-4 ovarian
  GI50: 27.8 µM
  TGI: > 55.6 µM
OVCAR-5 ovarian
  GI50: > 46.6 µM
  TGI: > 100 µM
OVCAR-8 ovarian
  GI50: 35.9 µM
  TGI: > 78.6 µM
PC-3 prostate
  GI50: > 56.7 µM
  TGI: > 100 µM
RPMI-8226 leukemia
  GI50: 42.7 µM
  TGI: > 100 µM
RXF 393 renal
  GI50: 17.2 µM
  TGI: 56.5 µM
SF-268 CNS
  GI50: 36.8 µM
  TGI: > 100 µM
SF-295 CNS
  GI50: 41.3 µM
  TGI: > 100 µM
SF-539 CNS
  GI50: 37.7 µM
  TGI: > 83.6 µM
SK-MEL-2 melanoma
  GI50: 23.8 µM
  TGI: > 100 µM
SK-MEL-28 melanoma
  GI50: 28 µM
  TGI: > 100 µM
SK-MEL-5 melanoma
  GI50: > 74.4 µM
  TGI: > 100 µM
SK-OV-3 ovarian
  GI50: 16.3 µM
  TGI: 61.7 µM
SN12C renal
  GI50: > 58.6 µM
  TGI: > 100 µM
SNB-19 CNS
  GI50: 33.1 µM
  TGI: > 100 µM
SR leukemia
  TGI: 1.41 µM
SW-620 colon
  GI50: > 59.3 µM
  TGI: > 100 µM
T-47D breast
  GI50: > 100 µM
  TGI: > 100 µM
TK-10 renal
  GI50: 25.4 µM
  TGI: > 90.9 µM
U251 CNS
  GI50: 28.2 µM
  TGI: > 64.3 µM
UACC-257 melanoma
  GI50: > 100 µM
  TGI: > 100 µM
UACC-62 melanoma
  GI50: 23.8 µM
  TGI: > 55.1 µM
UO-31 renal
  GI50: > 89.3 µM
  TGI: > 100 µM

Reference: PubChem BioAssay (NCI)
